In patent US8163894B2, “DNA for eukaryotic expression of CymR” (National Research Council of Canada, priority 2001, dated 2012):
Where two headings read alike, the source gives them in different places.

Experiments:
[1] = system: CymR-mediated expression (P2-cymlacZ fusion system); test: Induction of expression in the P2-cymlacZ fusion system by candidate effectors; type: cell-based, Pseudomonas putida
Text: The need to solubilize p-cumate (p-cumic acid) in organic solvent (e.g. ethanol or dimethyl formamide) is a great disadvantage. The present invention thus provides water-soluble effectors as well as possibly expanding the spectrum of inducers beyond p-cumate. At first, cumic alcohol, 4-methyl benzylalcohol, ethyltoluene, indole-2-carboxylic acid, indole-3-carboxylic acid, benzoic acid, 3- and 4-hydroxybenzoic acids, 3,4-dihyroxybenzoic acid and 2,4-dihydrobenzoic acid were tried. […] In this P2-cymlacZ fusion system, the threshold cumate concentration for induction is in the order of 0.002 millimolar (mM).
The sodium salt of cumic acid was also tested vs cumic acid (taken as cumate).
Both sodium benzoate and sodium toluate are ineffective.

[2] = system: 293 CuO-GFP clone 13; test: Testing of cumate analogues as effector molecule (FIG. 16); type: cell-based
Text: Of course cumate can be substituted for various cumate analogues also referred to as effector molecule as described before.
The Deposits were received by the authority on Apr. 10, 2002, and were given accession number IDA-100402-1 and IDA-100402-2, respectively. 293 CuO-GFP clone 13 was also deposited on Apr. 10, 2002 in the same IDA and was given accession number IDA-100401-3.

[3] = biological target: CymR-VP16 transactivator in HeLa cells (Pseudomonas putida, UniProt O33453); test: Cumate switch strategy 1: transient co-transfection, β-gal, HeLa cells; type: cell-based
CymR-VP16 transactivator in HeLa cells, sequence (O33453 whole entry, added parts left off): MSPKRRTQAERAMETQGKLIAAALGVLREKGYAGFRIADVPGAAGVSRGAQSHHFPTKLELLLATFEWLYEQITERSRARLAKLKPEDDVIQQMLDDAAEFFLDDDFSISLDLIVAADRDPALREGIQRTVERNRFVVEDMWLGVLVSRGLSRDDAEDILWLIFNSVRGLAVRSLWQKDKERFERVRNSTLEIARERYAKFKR
Experimental: Transient transfections in 293 and HeLa cells were carried out using the calcium phosphate technique. One (1) ml of DNA-calcium phosphate precipitate contained 5 μg reporter, 250 ng activator/repressor (unless mentioned otherwise) and 3 μg seap in a total of 10 μg DNA. This was divided equally between two 60 mm plates, each containing 10^6 293 cells. One of the two plates received in addition 200 μg/ml cumate. Transient transfections in BMAD78-42 were carried out using Geneporter™ according to manufacturers directions. Briefly, 3 μg DNA (2 μg reporter, 25 ng transactivator and 0.5 μg seap) in 500 μl DMEM was added to 6×10^5 BMAd78-42 cells in DMEM. After 3 h 1 ml DMEM supplemented with 20% serum was added to the plates. […]
Measurement of Seap and β-gal activity Seap activity was measured in 50 μl of cell culture medium by adding 50 μl of 2× seap buffer (1M diethanolamine PH 9.8, 2 mM MgCl2, 10 mM 1-homoarginine and 20 mM p-nitrophenyl phosphate, disodium, hexahydrate Sigma 104 phosphatase substrate) and incubating at room temperature. OD405 was read using a plate reader at different intervals. This information was used to ensure that the enzyme activity was measured under conditions where the substrate was in excess. β-galactosidase activity was measured in transfected cell extracts. […] OD420 was measured at regular intervals until the reaction appeared to plateau. […]

[4] = biological target: CymR-VP16 transactivator in BMAdE1/78-42 cells (Pseudomonas putida, UniProt O33453); type: cell-based
CymR-VP16 transactivator in BMAdE1/78-42 cells, sequence (O33453 whole entry, added parts left off): as above
Experimental: Measurement of Seap and β-gal activity Seap activity was measured in 50 μl of cell culture medium by adding 50 μl of 2× seap buffer (1M diethanolamine PH 9.8, 2 mM MgCl2, 10 mM 1-homoarginine and 20 mM p-nitrophenyl phosphate, disodium, hexahydrate Sigma 104 phosphatase substrate) and incubating at room temperature. OD405 was read using a plate reader at different intervals. This information was used to ensure that the enzyme activity was measured under conditions where the substrate was in excess. β-galactosidase activity was measured in transfected cell extracts. Cells were lysed 48 h post-transfection by three freeze-thaw cycles in 0.25M Tris.Hcl pH8. The cell lysate was centrifuged at 14,000×g and enzyme (β-galactosidase) activity was measured in the supernatant (cell extract) using a colorimetric assay containing 1 mM MgCl2, 0.9 mg/ml ONPG, and 66 mM sodium phosphate (pH 7.5). […] OD420 was measured at regular intervals until the reaction appeared to plateau. […]

[5] = system: cumate activator (rAd vectors); test: Co-infection with recombinant adenoviral reporter and activator viruses
[6] = system: 293-CuO-GFPq13# cells; test: GFP expression from stably integrated pAdCMV5-CuO-GFPq in 293-CuO-GFPq13#; type: cell-based
Experimental: 1×10^6 293-CymR clone 21 were transfected with 10 μg of pAdCMV5-CuO-GFPq. GFP expression was induced by the addition of 200 μg/ml cumate and individual GFP positive cells were picked by Quixell™ (Caron, A. W., et al., Methods in cell science 22: 137-145, 2000).
293-CuO-GFPq13# were cultured in the presence and absence of cumate for 48 h. Photographs were taken using an inverted fluorescence microscope (Leica, Wetzlar, Germany). […] In the OFF state (FIG. 15B) only two GFP-positive cells are visible in the microscopic field.
Total GFP fluorescence was measured in the ON (9255) and OFF (3.75) states using an EPICS-XL flow cytometer (Coulter). The ON/OFF ratio for this clone was […].

[7] = system: 293-CymR clone 21; type: cell-based; details: 200 μg/ml cumate, 48 h post-transfection
[8] = system: 293-CymR clones; test: Infection of 293-CymR clones with AdCMV5-Og-LacZ, β-galactosidase activity; type: cell-based; details: 200 μg/ml cumate
Experimental: 1×10^6 293 cells were transfected with 10 μg of pCymR/tk-neo by the calcium phosphate technique. 400 μg/ml G418 was added to the growth medium 48 h after transfection to select a pool of G418-resistant cells. Individual clones (293-CymR) were isolated from this pool by the method of limiting dilution.
293CymR clones were infected with AdCMV5-Og-LacZ in the presence and absence of 200 μg/ml cumate. β-galactosidase activity was measured 48 h post-infection.

[9] = system: mammalian cells; test: Effect of cumate on morphology, growth and toxicity in mammalian cells; type: cell-based
[10] = system: 293-CymR cells; type: cell-based; details: 293-CymR infected with rAd expressing VSVg
[11] = biological target: CymR-VP16 transactivator in 293 cells (Pseudomonas putida, UniProt O33453); type: cell-based
CymR-VP16 transactivator in 293 cells, sequence (O33453 whole entry, added parts left off): as above
Experimental: Transient transfections in 293 and HeLa cells were carried out using the calcium phosphate technique. One (1) ml of DNA-calcium phosphate precipitate contained 5 μg reporter, 250 ng activator/repressor (unless mentioned otherwise) and 3 μg seap in a total of 10 μg DNA. This was divided equally between two 60 mm plates, each containing 10^6 293 cells. One of the two plates received in addition 200 μg/ml cumate. Transient transfections in BMAD78-42 were carried out using Geneporter™ according to manufacturers directions. Briefly, 3 μg DNA (2 μg reporter, 25 ng transactivator and 0.5 μg seap) in 500 μl DMEM was added to 6×10^5 BMAd78-42 cells in DMEM. After 3 h 1 ml DMEM supplemented with 20% serum was added to the plates. Half the samples received DMEM supplemented with 20% serum and 400 μg/ml cumate.
Measurement of Seap and β-gal activity Seap activity was measured in 50 μl of cell culture medium by adding 50 μl of 2× seap buffer (1M diethanolamine PH 9.8, 2 mM MgCl2, 10 mM 1-homoarginine and 20 mM p-nitrophenyl phosphate, disodium, hexahydrate Sigma 104 phosphatase substrate) and incubating at room temperature. OD405 was read using a plate reader at different intervals. This information was used to ensure that the enzyme activity was measured under conditions where the substrate was in excess. β-galactosidase activity was measured in transfected cell extracts. Cells were lysed 48 h post-transfection by three freeze-thaw cycles in 0.25M Tris.Hcl pH8. The cell lysate was centrifuged at 14,000×g and enzyme (β-galactosidase) activity was measured in the supernatant (cell extract) using a colorimetric assay containing 1 mM MgCl2, 0.9 mg/ml ONPG, and 66 mM sodium phosphate (pH 7.5). Reactions were incubated at 37° C. until a faint yellow color had developed. OD420 was measured at regular intervals until the reaction appeared to plateau. To measure low level activity (basal activity in the absence of transactivation) a chemiluminescent substrate was used. The reaction was performed using a kit from Roche diagnostics according to the instructions of the manufacturer.
To test the system, reporter and activator constructs as described in Example I above, were co-transfected into 293 cells by the calcium-phosphate technique. A plasmid carrying the secreted alkaline phosphatase coding sequence under the control of a constitutive promoter was included in all transfections and seap activity in the cell culture medium was used to normalize for transfection efficiency.

[12] = system: CHO-cTA clones (cumate transactivator); test: Adenoviral infection of CHO-cTA clones, total GFP fluorescence by flow cytometry; type: cell-based
Experimental: 1×10^6 CHO cells were transfected with 5 μg of pMPG-cTA-tk-neo-nls using 12 μl of LIPOFECTAMINE 2000 according to the instructions of the manufacturer. 1200 μg/ml G418 was added to the growth medium 48 h after transfection to select a pool of G418-resistant cells. Individual clones (CHO-cTA) were isolated from this pool by the method of limiting dilution.
CHO-cTA clones were infected with AdCMV5GFPq or AdCR5GFPq at MOIs of 100, 300 and 900 in the presence or absence of 200 μg/ml cumate. Forty-eight hours post-infection, cells were fixed in 2% paraformaldehyde in PBS. Total GFP fluorescence of the infected population was measured using an EPICS-XL flow cytometer (Coulter).

[13] = biological target: T1, CymR repressor in 293 cells (Pseudomonas putida, UniProt O33453); test: Strategy 2: CymR-mediated repression of CMV5-operator LacZ reporters, transient transfection in 293 cells; type: cell-based
T1 construct: expressed in transfected cells; host or cells: 293 cells
T1 sequence (O33453 whole entry): as the sequence (O33453 whole entry, added parts left off) above

[14] = Water solubility of effectors; type: physicochemical

Compound: O=C(O)c1ccc(O)c(O)c1 [3,4-dihyroxybenzoic acid]
- ability to act as inducer [1]: none of these compounds could act as effective inducers

Compound: O=C(O)c1cccc(O)c1 [3-hydroxybenzoic acid, 3- and 4-hydroxybenzoic acids]
- ability to act as inducer [1]: none of these compounds could act as effective inducers

Compound: Cc1ccc(CO)cc1 [4-methyl benzylalcohol]
- ability to act as inducer [1]: none of these compounds could act as effective inducers

Compound: CCCc1ccc(C(=O)O)cc1 [C4, p-Propylbenzoic acid]
- activity as activator (effector molecule) [2]: good activators

Compound: CC(C)Cc1ccc(C(=O)O)cc1 [C6, p-isobutylbenzoic acid]
- activity as activator (effector molecule) [2]: good activators

Compound: CN(C)c1ccc(C(=O)O)cc1 [C11, p-N-dimethylaminobenzoic acid]
- activity as activator (effector molecule) [2]: good activators

Compound: CCNc1ccc(C(=O)O)cc1 [C13, p-N-ethylaminobenzoic acid]
- activity as activator (effector molecule) [2]: good activators

Compound: CN(C)c1ccc(C(=O)O)cc1 [DM PABA, Di-methyl p-aminobenzoic acid]
- ability to act as inducer ([1]; 0.02 mM): effective inducers
- ability to act as inducer ([1]; 0.1 mM): just as good an inducer as parent cumate

Compound: CCc1ccc(C(=O)[O-])cc1.[Na+] [Na^+ 4-ethylbenzoate]
- ability to act as inducer [1]: acts as an inducer
- response compared with parental cumate [1]: not as good as the parental cumate

Compound: O=C(O)c1ccccc1 [benzoic acid, Benzoic acid]
- ability to act as inducer [1]: none of these compounds could act as effective inducers

Compound: CC(C)c1ccc(C(=O)O)cc1 [cumate, cumic acid]
- decrease in activation by the transactivator on addition of cumate ([3]; pAdcTA1(+nls)): 9.4 fold
- reduction in activation on addition of cumate ([3]; pAdcTA1(−nls)): 34 fold
- reduction of activation on addition of cumate ([4]; BMAdE1/78-42, pAdcTA1(+nls)): 3.9 fold
- reduction in activation on addition of cumate ([4]; BMAdE1/78-42, pAdcTA1(−nls)): 22 fold
- share of the increase obliterated by addition of cumate ([5]; reporter moi 10, activator moi 0.1): 95%
- share of the increase obliterated by addition of cumate ([5]; reporter moi 10, activator moi 1): 98%
- cells positive for GFP expression in the presence of cumate ([6]; 48 h culture): 100%
- ON/OFF ratio of total GFP fluorescence ([6]; clone 293-CuO-GFPq13#): 246
- Total GFP fluorescence, ON state ([6]; with cumate, flow cytometer): 9255
- VSVg expression on addition of cumate (western) [7]: clearly evident
- ON/OFF ratio (β-gal with vs without cumate) ([8]; 293-CymR clone 21, AdCMV5-Og-LacZ): 19
- ON/OFF ratio (β-gal with vs without cumate) ([8]; 293-CymR clone 22, AdCMV5-Og-LacZ): 16
- ON/OFF ratio (β-gal with vs without cumate) ([8]; 293-CymR clone 23, AdCMV5-Og-LacZ): 7.6
- effects on morphology or growth rates ([9]; 200 μg/ml cumate in media, 4 weeks): No visible effects
- toxicity to mammalian cells ([9]; concentrations that effectively regulate gene expression): does not appear to be toxic
- induction of VSVg and syncitia formation on addition of cumate [10]: induces the expression of VSVg
- threshold cumate concentration for induction ([1]; P2-cymlacZ fusion system): ~0.002 mM
- reduction of activation on addition of cumate ([11]; pAdCR5LacZ + pAdcTA1(+nls), 200 μg/ml cumate): 78%
- reduction of activation on addition of cumate ([11]; pAdcTA1(−nls), 50 μg/ml cumate): 86%
- reduction of activation on addition of cumate ([11]; pAdcTA1(−nls), 100 μg/ml cumate): 87%
- reduction of activation on addition of cumate ([11]; pAdcTA1(−nls), 200 μg/ml cumate): 89%
- GFP expression over mock infected cells after addition of cumate ([12]; AdCR5-GFPq MOI 100, 200 μg/ml cumate): 2 fold
- GFP expression over mock infected cells after addition of cumate ([12]; AdCR5-GFPq MOI 300, 200 μg/ml cumate): 4.5 fold
- GFP expression over mock infected cells after addition of cumate ([12]; AdCR5-GFPq MOI 900, 200 μg/ml cumate): 20.6 fold
- activity of the unrepressed state recovered on addition of cumate ([13]; nls-containing repressor, pAdCMV5-Og-LacZ): 61%
- relief of repression on addition of cumate ([13]; nls-containing repressor, pAdCMV5-Os-LacZ): relieved the repression completely
- relief of repression on addition of cumate ([13]; pAdCymR, both pAdCMV5-Os-LacZ and pAdCMV5-Og-LacZ): relieved the repression totally
- activity as activator (effector molecule) [2]: good activators

Compound: CC(C)c1ccc(CO)cc1 [cumic alcohol]
- ability to act as inducer [1]: none of these compounds could act as effective inducers

Compound: O=C(O)c1cc2ccccc2[nH]1 [indole-2-carboxylic acid]
- ability to act as inducer [1]: none of these compounds could act as effective inducers

Compound: O=C(O)c1c[nH]c2ccccc12 [indole-3-carboxylic acid]
- ability to act as inducer [1]: none of these compounds could act as effective inducers

Compound: O=C([O-])c1ccccc1.[Na+] [sodium benzoate]
- ability to act as inducer [1]: ineffective

Compound: CC(C)c1ccc(C(=O)[O-])cc1.[Na+] [sodium salt of cumic acid]
- water solubility [14]: water-soluble
- threshold of concentration giving a response, vs cumic acid [1]: did not change appreciably

Compound: Na^+ trimethyl cumate
- response compared with parental cumate [1]: not as good as the parental cumate
- ability to act as inducer ([1]; 0.1 mM): effective inducer

Compound: ethyltoluene
- ability to act as inducer [1]: none of these compounds could act as effective inducers

Compound: sodium toluate
- ability to act as inducer [1]: ineffective
